Measurements from the supplement of paper PMC10307832.

Columns and labels:
Assay in all cases: relative viability (nuclei count vs DMSO), 5 days (fraction); higher = more cells survive
[1] = compound: C1=CC=C2C(=C1)N=C(S2)C(C#N)C3=NC(=NC=C3)NCCC4=CN=CC=C4 + CC(=O)Nc1cccc(-n2c(=O)n(C3CC3)c(=O)c3c(Nc4ccc(I)cc4F)n(C)c(=O)c(C)c32)c1 [Trametinib] (partner 0.02 µM)
Summary of the method: (§1)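 Cells from lung cancer lines were seeded into 1536-well plates and, one day later, dosed by pin tool. Treatments were either a single drug or a fixed dose of an anchor drug with five library-drug doses (not always all listed) in √10 steps. After 5 days, nuclei were stained in a one-step fixation (final 0.05% Triton X-100, 1% formaldehyde, 1 ug/ml Hoechst) and counted on 4× images, and relative viability is the treated-to-vehicle nuclei ratio, as the median of duplicate plates.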

[2] = compound: COc1cc2/c(=N/c3ccc(Br)cc3F)nc[nH]c2cc1OCC1CCN(C)CC1 [Vandetanib] + CS(=O)(=O)CCNCc1ccc(-c2ccc3ncnc(Nc4ccc(OCc5cccc(F)c5)c(Cl)c4)c3c2)o1 [Lapatinib] (partner 2 µM)
Summary of the method: as §1

[3] = compound: COc1cc(N2CCC(N3CCN(C)CC3)CC2)ccc1Nc1ncc(Cl)c(Nc2ccccc2S(=O)(=O)C(C)C)n1 [NVP-TAE684] + CC(C)C[C@H](NC(=O)[C@H](Cc1ccccc1)NC(=O)c1cnccn1)B(O)O [Bortezomib] (partner 0.002 µM)
Summary of the method: as §1

[4] = compound: COc1cc(N2CCC(N3CCN(C)CC3)CC2)ccc1Nc1ncc(Cl)c(Nc2ccccc2S(=O)(=O)C(C)C)n1 [NVP-TAE684] + CS(=O)(=O)CCNCc1ccc(-c2ccc3ncnc(Nc4ccc(OCc5cccc(F)c5)c(Cl)c4)c3c2)o1 [Lapatinib] (partner 2 µM)
Summary of the method: as §1

| Cell Line | relative viability ([1]; first compound 0.005 µM) | relative viability ([1]; first compound 0.01581 µM) | relative viability ([1]; first compound 0.05 µM) | relative viability ([1]; first compound 0.1581 µM) | relative viability ([1]; first compound 0.5 µM) | relative viability ([2]; first compound 0.02 µM) | relative viability ([2]; first compound 0.06325 µM) | relative viability ([2]; first compound 0.2 µM) | relative viability ([2]; first compound 0.6325 µM) | relative viability ([2]; first compound 2 µM) | relative viability ([3]; first compound 0.6325 µM) | relative viability ([3]; first compound 2 µM) | relative viability ([4]; first compound 0.2 µM) | relative viability ([4]; first compound 0.6325 µM) | relative viability ([4]; first compound 2 µM) | relative viability ([3]; first compound 0.2 µM) |
| --- | --- | --- | --- | --- | --- | --- | --- | --- | --- | --- | --- | --- | --- | --- | --- | --- |
| EMC-BAC-2 | 1.03 | 0.938 | 0.812 | 0.963 | 0.855 | 0.906 | 0.87 | 0.435 | 0.866 | 0.95 | 1.01 | 0.734 | 0.856 | 0.805 | 0.586 | – |
| EPLC-272H | 0.392 | 0.277 | 0.301 | 0.336 | 0.265 | 1.05 | 0.791 | 0.933 | 1.02 | 0.168 | – | 0.66 | 0.813 | – | 0.955 | 1.23 |
| H3255 | 0.533 | 0.577 | 0.62 | 0.697 | 0.726 | 0.26 | 0.231 | 0.244 | 0.213 | 0.202 | 0.618 | 0.746 | 0.279 | 0.18 | 0.167 | 0.766 |
| HARA | 0.685 | 0.475 | 0.49 | 1.31 | 0.576 | 0.676 | 0.558 | 0.588 | 0.773 | 0.764 | 1.1 | 1.05 | 1.09 | 0.626 | 0.232 | 1.31 |
| HCC-15 | 0.396 | 0.418 | 0.369 | 0.378 | 0.356 | 0.824 | 0.772 | 0.798 | 0.878 | 0.937 | 1.07 | 1 | 0.914 | 0.893 | 0.808 | 0.916 |
| HCC-44 | 1.06 | 1.1 | 1.02 | 1.07 | 0.967 | 0.917 | 1 | 1.06 | 0.968 | 0.996 | 0.863 | 0.83 | 1.23 | 1.03 | 0.979 | 1 |
| HCC-78 | 1.01 | 0.782 | 0.924 | 0.693 | 0.729 | 1.03 | 0.739 | 0.915 | 0.913 | 0.738 | 0.381 | 0.307 | 1.26 | 1.3 | 0.255 | 0.428 |
| HCC-366 | 0.281 | 0.378 | 0.314 | 0.404 | 0.307 | 0.931 | 0.978 | 1.18 | 1.18 | 1.09 | 1.08 | 1.17 | 1.58 | 0.932 | 0.963 | 0.855 |
| HCC-827 | 0.503 | 0.534 | 0.497 | 0.486 | 0.497 | 0.195 | 0.18 | 0.183 | 0.181 | 0.185 | 0.988 | 1.05 | 0.187 | 0.203 | 0.207 | – |
| HOP-62 | 0.359 | 0.394 | 0.394 | 0.37 | 0.366 | 0.81 | 0.923 | 1.07 | 0.932 | 0.892 | 0.725 | 0.758 | 0.882 | 1 | 1.08 | 0.678 |
